Experimental data from patent publication US20020039780A1, “Salicyclic acid inducible genes and promoters” (priority 1998, published 2002).
pEC50: −log10 of the molar value.

Legend:
Assay type in all cases: cell-based
C18-1/EREBP1 [1] = test: Northern analysis of mRNA accumulation in cultured tobacco cells
Description: FIG. 2. Time course of SA-induced gene expression. Northern analysis of representative differential display genes following treatment of cultured tobacco cells with SA for the indicated time (in hours, except lanes 2-4, which refer to 10, 20, and 30 min.). Twenty micrograms of total RNA was loaded per lane. Blots were hybridized with ddPCR fragments indicated at right or with the β-ATPase gene as a loading control probe. Autoradiogram exposure times were optimized for each gene. […] Labels on left indicate response class.
FIG. 4. Specificity of induction among SA analogs and other signalling compounds. Northern analysis of representative differential display genes following treatment of tobacco cells with 100 μM or 1 mM (left and right side of triangles, respectively) of the following chemicals for 2-2.5 hr: salicylic acid (SA, lanes 4 and 5), acetylSA (ASA, lanes 6 and 7), benzoic acid (BA, lanes 8 and 9), 4-hydroxybenzoic (4HBA, lanes 10 and 11), thiamine (thia, lanes 12 and 13), methyljasmonate (MJ, lanes 14 and 15), abscisic acid (ABA, lanes 16 and 17), or 2,4-dichlorophenoxyacetic acid (2,4-D, lanes 18 and 19). Control treatments are H2O (H, lane 1), 1% ethanol (E, solvent concentration in MJ treatments, lane 2), or 1% DMSO (D, solvent concentration in 2,4D treatments, lane 3). Blots were hybridized with ddPCR fragments indicated at right or with the β-ATPase geneas a loading control probe. Autoradiogram exposure times were optimized for each gene. […] Labels on left indicate response class.
FIG. 5. Dose response of C18-1 and G8-1 to a range of chemicals. Northern analysis of tobacco cell cultures with eight concentrations of SA, ASA, BA, 4HBA, Thia, MJ, ABA, 2,4-D, or H2O for 2-2.5 hr. Concentrations were 0.1, 1, 3, 10, 30, 100, 300 μM or […], as indicated.
FIG. 6. […] Graphic representation of mRNA accumulation of G8-1 ( ), C18se -1 (♦), and IEGT (o) in response to a 2-2.5 hr incubation of cultured tobacco cells with a range of SA concentrations. RNA gel blots were quantitated by phosphorimaging analysis and normalized relative to the β-ATPase gene loading control (not shown).
Differential display technology (Liang, P. and Pardee, A. B., Science 257: 967-971, 1992) was used to identify genes activated in the presence of SA, CHX and both. Therefore the absence or presence of SA, induction at 3 timepoints of SA-treatment, 2 different concentrations of SA and the effect of addition of CHX were measured. Seven treatments in total were performed. Treatment of tobacco BY-2 suspension cells and leaves and differential display PCR reactions were performed as described (Horvath and Chua (1996), Plant Mol. Biol. 31, 1061-1072).
The kinetics of induction were examined in detail through time course experiments for representative clones of each class (FIG. 2).
The specificity for induction by SA was tested by treating tobacco cells with a range of SA analogs and plant signalling compounds at 0.1 and 1 mM for approximately 2.5 h. […] Several genes, including those for proteinase inhibitors and lipoxygenase (Hildmann, T. et al., Plant Cell 4: 1157-1170, 1992; Melan, M. A. et al., Plant Physiol. 101: 441-450, 1993; Xu, D. et al., Plant Mol. Biol. 22: 573-588, 1993) are known to be under dual regulation by MJ and ABA.
A dose-response curve was made for SA. Therefore tobacco cells were treated with SA in a range of concentrations from 0.1 μM to 2 mM.

IEGT-Luc1 lines = test: Promoter-luciferase reporter activity in leaves of transgenic tobacco; settings: leaf halves infiltrated with 1 mM SA for 4-12 hours; six out of ten lines
Description: (§1) FIG. 8. A. Schematic representation of the set-up of the experiment investigating SA-inducible gene expression in plants carrying a promoter-luciferase reporter construct. Parts of the leaves of transgenic plants are harvested, split and one half treated by infiltration by SA. The other half is treated with water. Then both halves are sprayed with luciferin solution and tested for luminescence. B. Results of the experiment using leaves of tobacco transgenic for the IEGT/G1-1 promoter-luciferase reporter construct. On the picture, the lefthand side of the leave was infiltrated with SA, the right hand side infiltrated with water. Increased luminescence is indicated by the lighter colors.
(§2) Amplified fragments were digested with BamHI and HindIII and subcloned into BamHI and HindIII-digested vector VIP11•-FFLuc (Anderson et al., 1994, Plant J. 4, 457-470) containing the firefly luciferase gene. This vector positions the promoter sequences directly upstream the promoterless FFLuc gene. […]
(§3) Leaves of primary transformants or S1 progeny were tested for reporter gene activity by excising halves of the leaves, splitting and infiltration with either water or 1 mM SA for 4-12 hours. Leaves were then sprayed with the reporter substrate luciferin (1 mM luciferin with 0.1% Triton X-100 in water) and the luminescence counted by video-imaging and quantitation equipment (schematically shown in FIG. 8A).

IEGT-Luc2 lines = test: as above; settings: leaf halves infiltrated with 1 mM SA or water for 4-12 hours; all ten lines
Description: as §1, §2, §3

C18-1/EREBP1 [2] = test: Northern analysis of mRNA accumulation in cultured tobacco cells; settings: SA time course, full length cDNA probe

O=C(O)c1ccccc1O [SA, salicylic acid]
C18-1/EREBP1 induction at 0.1 mM versus 1 mM (C18-1/EREBP1 [1]; 0.1 and 1 mM, approximately 2.5 h): greater induction at 1mM | pEC50 (C18-1/EREBP1 [1]; Nicotiana tabacum, tobacco cells, SA 0.1 μM to 2 mM, 2-2.5 hr, read-out: concentration of SA required for half of the maximum level of C18-1/EREBP1 expression): 3.82 to 4.00 | response zone of C18-1/EREBP1 to SA concentration (C18-1/EREBP1 [1]; SA 0.1 μM to 2 mM): narrow response zone | time of decay of C18-1/EREBP1 mRNA to background levels (C18-1/EREBP1 [1]; SA time course): ≤ 4.5 h | time of peak C18-1/EREBP1 mRNA (C18-1/EREBP1 [1]; SA time course): 2 h | SA-induced luciferase expression over controls (IEGT-Luc1 lines): 2.3-6 fold | luciferase activity (IEGT-Luc2 lines): only baseline activity | time at which increase in C18-1/EREBP1 mRNA is first apparent (C18-1/EREBP1 [2]): 10 min
